In patent publication US20230331718A1, “COMPOSITIONS FOR MODULATING SPLICING” (Skyhawk Therapeutics, Inc., priority 2020, published 2023):

Tests used:
[1] = system: SMN2 Splicing D7 (SMN Δ7 transcript); test: SMN Quantitative Splicing Assay (qPCR); assay type: cell-based, human; conditions: 24 h, SMA patient fibroblasts (GM03813), 2.5 µM to 0.6 nM
Experimental: Spinal muscular atrophy (SMA) patient fibroblasts (GM03813, Coriell) were plated in 96-well plates at 50,000 cells/well. […] Treated cells were lysed and cDNA synthesized using the Fast Advanced Cells-to-Ct kit (Thermofisher A35378) according to the manufacturer’s instructions. 2 µL of each cDNA were used in qPCR reactions. […] Reactions were run in a Quant Studio 6 qPCR instrument with default settings.

[2] = system: SMN2 Protein; test: SMN Protein Assay (MSD); assay type: cell-based, human; conditions: SMA patient fibroblasts, 48 hours, 0.6 nM to 2.5 µM
Outline: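 SMA patient fibroblasts at 7,000 cells/well treated 48 h with compound from 0.6 nM to 2.5 µM, then lysed. SMN protein in lysate quantified by Mesoscale Discovery immunoassay against an SMN standard curve (19.5 pg/ml–1 µg/ml), giving absolute amounts.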

| Compound | IC50 ([1]; Homo sapiens, Fibroblast) | EC50 [2] | IC50 [1] |
| --- | --- | --- | --- |
| CN(c1cnc(-c2cc3ccn(C)c(=O)c3cc2O)nn1)C1CC2COCC(C1)N2 (centres unmarked) [Compound 147] | 0.01 to 15 nM | 0.01 to 15 nM | – |
| CN(c1cnc(-c2cc3ncn(C)c(=O)c3cc2O)nn1)C1CC2CCCC(N2)C1F (centres unmarked) [Compound 123] | 0.01 to 15 nM | 0.01 to 15 nM | – |
| CN(c1cnc(-c2cc3occc(=O)c3cc2O)nn1)[C@H]1C[C@@H]2COCC(N2)[C@H]1F [Compound 68] | 101 to 500 nM | 501 to 10000 nM | – |
| Cc1ncc2cc(-c3ncc(N(C)[C@H]4C[C@@H]5CCC(N5)[C@H]4F)nn3)c(O)cc2n1 [Compound 72] | 51 to 100 nM | 51 to 100 nM | – |
| Cc1nc2cc(-c3ncc(N(C)[C@H]4CC5CC[C@@H](N5)[C@H]4F)nn3)c(O)cc2c(=O)n1C [Compound 205] | 0.01 to 15 nM | 0.01 to 15 nM | – |
| CN(c1cnc(-c2cc3cncnc3cc2O)nn1)C1CC2CCC(N2)[C@@H]1F (some centres unmarked) [Compound 25] | 101 to 500 nM | 501 to 10000 nM | – |
| CN(c1cnc(-c2cc3ccncc3cc2O)nn1)C1CC2CCC(N2)C1F (centres unmarked) [Compound 21] | 101 to 500 nM | 16 to 50 nM | – |
| CN(c1cnc(-c2cc3occc(=O)c3cc2O)nn1)[C@H]1C[C@]2(C)CCC[C@@](C)(N2)[C@H]1F [Compound 64] | 0.01 to 15 nM | 0.01 to 15 nM | – |
| CN(c1cnc(-c2cc3cnn(C)c(=O)c3cc2O)nn1)C1CC2CCC(C)(N2)C1F (centres unmarked) [Compound 184] | 0.01 to 15 nM | 0.01 to 15 nM | – |
| CN(c1cnc(-c2cc3ncn(C)c(=O)c3cc2O)nn1)C1CC2CC[C@@](C)(N2)[C@H]1F (some centres unmarked) [Compound 136] | 0.01 to 15 nM | 0.01 to 15 nM | – |
| CN(c1cnc(-c2cc3c(F)cn(C)c(=O)c3cc2O)nn1)[C@@H]1CC2CC(F)(F)C(C1)N2 (some centres unmarked) [Compound 209] | 51 to 100 nM | 101 to 500 nM | – |
| Cc1coc2cc(-c3ncc(N(C)[C@@H]4CC5CCCC(N5)[C@@H]4F)nn3)c(O)cc2c1=O (some centres unmarked) [Compound 101] | 0.01 to 15 nM | 0.01 to 15 nM | – |
| CN(c1cnc(-c2cc3cnn(C)c(=O)c3cc2O)nn1)C1CC2CCCC(N2)C1F (centres unmarked) [Compound 132] | – | 51 to 100 nM | 16 to 50 nM |
| CCn1c(C)nc2cc(-c3ncc(N(C)[C@H]4CC5CC(F)(F)C(C4)N5)nn3)c(O)cc2c1=O (some centres unmarked) [Compound 215] | 16 to 50 nM | 16 to 50 nM | – |
| CN(c1cnc(-c2cc3c(F)cn(C)c(=O)c3cc2O)nn1)C1CC2CCCC(N2)[C@H]1F (some centres unmarked) [Compound 137] | 0.01 to 15 nM | 0.01 to 15 nM | – |
| CCn1c(C)nc2cc(-c3ncc(N(C)[C@@H]4CC5CC(F)(F)C(C4)N5)nn3)c(O)cc2c1=O (some centres unmarked) [Compound 214] | 501 to 10000 nM | 501 to 10000 nM | – |
| CN(c1cnc(-c2cc3occc(=O)c3cc2O)nn1)[C@H]1C[C@]2(C)CC[C@@](C)(N2)[C@H]1F [Compound 62] | 0.01 to 15 nM | 0.01 to 15 nM | – |
| CN(c1cnc(-c2cc3ncn(C)c(=O)c3cc2O)nn1)[C@@H]1C[C@H]2CCCC(N2)[C@@H]1F [Compound 124] | 16 to 50 nM | 16 to 50 nM | – |
| CCc1cc(=O)c2cc(-c3ncc(N(C)[C@H]4C[C@@H]5CCCC(N5)[C@H]4F)nn3)c(O)cc2o1 [Compound 116] | 51 to 100 nM | 16 to 50 nM | – |
